Results: US6737383B1, “Herbicidal oxadiazolidines” (priority 1999, dated 2004)

Key:
[1] = tested on: green foxtail; assay: Test E green foxtail; assay type: in vivo, Setaria viridis; details: Preemergence
[2] = tested on: Italian ryegrass; assay: Test E Italian ryegrass; assay type: in vivo, Lolium multiflorum; details: Preemergence
[3] = tested on: soybean; assay: Test B pre/postemergence soybean; assay type: in vivo, Glycine max
Procedure, shortened: (§1)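 Response is a visual 0-to-10 score relative to untreated plants, where 0 means no effect and 10 means complete control, taken twelve to sixteen days after application. Treatments went onto soil at planting and onto foliage of 1- to 4-leaf plants, using a surfactant-containing non-phytotoxic solvent.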

[4] = tested on: wild oat; assay: Test E wild oat; assay type: in vivo, Avena fatua; details: Preemergence
[5] = tested on: blackgrass; assay: Test E blackgrass; assay type: in vivo, Alopecurus myosuroides; details: Preemergence
[6] = tested on: morningglory; assay: Test B pre/postemergence morningglory; assay type: in vivo, Ipomoea hederacea
Procedure, shortened: as §1

[7] = tested on: pigweed; assay: Test B pre/postemergence pigweed; assay type: in vivo, Amaranthus retroflexus
Procedure, shortened: as §1

[8] = tested on: winter barley; assay: Test E winter barley; assay type: in vivo, Hordeum vulgare; details: Preemergence
[9] = tested on: winter wheat; assay: Test E winter wheat; assay type: in vivo, Triticum aestivum; details: Preemergence
[10] = tested on: cocklebur; assay: Test B pre/postemergence cocklebur; assay type: in vivo, Xanthium strumarium
Procedure, shortened: as §1

[11] = tested on: winter wheat; assay: Test E winter wheat; assay type: in vivo, Triticum aestivum; details: Postemergence
Procedure, shortened: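 Compounds formulated in non-phytotoxic solvent mixture with surfactant; for postemergence, sprayed on plants at 1- to 4-leaf stage grown in 60:40 sandy loam/greenhouse potting mix. Kept in greenhouse ~21 to 28 days, then visually rated against untreated controls.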

[12] = Rate 62 g/ha, 0 to 100 scale, 0 no effect, 100 complete control
[13] = Rate 125 g/ha, 0 to 100 scale (0 no effect, 100 complete control)
[14] = Postemergence, Rate 125 g/ha, scale of 0 to 10 where 0 is no effect and 10 is complete control
[15] = Preemergence, Rate 62 g/ha, scale 0 to 10 (0 no effect, 10 complete control)
[16] = Preemergence, Rate 125 g/ha, scale 0 to 10 (0 no effect, 10 complete control)
[17] = Preemergence, Rate 250 g/ha, scale of 0 to 10 where 0 is no effect and 10 is complete control
[18] = Preemergence, Rate 500 g/ha, scale 0 to 10 (0 no effect, 10 complete control)
[19] = Rate 62 g/ha, Postemergence, scale of 0 to 10 where 0 is no effect and 10 is complete control
[20] = Rate 250 g/ha, Postemergence, scale 0 to 10, 0 is no effect, 10 is complete control
[21] = Rate 500 g/ha, Postemergence, scale 0 to 10, 0 no effect, 10 complete control
[22] = Postemergence, Rate 250 g/ha, scale 0 to 10, 0 no effect, 10 complete control

## CC(C)N(C(=O)n1oc(=O)n(C(C)C)c1=O)c1ccccc1 [Compound 113]
[1]; [12]
  Plant response rating, Green foxtail: 55
[1]; [13]
  Plant response rating, Green foxtail: 70
[1]; Rate 250 g/ha, 0 to 100 scale
  Plant response rating, Green foxtail: 85
[2]; [12]
  Plant response rating, I. Ryegrass: 50
[2]; [13]
  Plant response rating, I. Ryegrass: 50
[2]; Rate 250 g/ha, 0 to 100 scale
  Plant response rating, I. Ryegrass: 100
[3]; [14]
  Soybean plant response rating: 6
[3]; [15]
  Soybean plant response rating: 3
[3]; [16]
  Plant response rating, Soybean: 8
[3]; [17]
  Plant response rating, Soybean: 9
[3]; [18]
  Soybean plant response rating: 9
[3]; [19]
  Soybean plant response rating: 6
[3]; [20]
  Plant response rating, Soybean: 7
[3]; [21]
  Soybean plant response rating: 7
[4]; [12]
  Plant response rating, Wild oat: 20
[4]; [13]
  Plant response rating, Wild oat: 30
[5]; [12]
  Plant response rating, Blackgrass: 60
[5]; [13]
  Plant response rating, Blackgrass: 30
[5]; Rate 250 g/ha, 0 to 100 scale
  Plant response rating, Blackgrass: 85
[6]; [14]
  Morningglory plant response rating: 5
[6]; [22]
  Morningglory plant response rating: 8
[6]; [15]
  Morningglory plant response rating: 1
[6]; [16]
  Plant response rating, Morningglory: 2
[6]; [17]
  Plant response rating, Morningglory: 7
[6]; [18]
  Morningglory plant response rating: 8
[6]; [19]
  Morningglory plant response rating: 5
[6]; [21]
  Morningglory plant response rating: 10
[7]; [14]
  Redroot pigweed plant response rating: 4
[7]; [15]
  Redroot pigweed plant response rating: 8
[7]; [16]
  Plant response rating, Redroot pigweed: 8
[7]; [17]
  Plant response rating, Redroot pigweed: 10
[7]; [18]
  Redroot pigweed plant response rating: 10
[7]; [19]
  Redroot pigweed plant response rating: 3
[7]; [20]
  Plant response rating, Redroot pigweed: 6
[7]; [21]
  Redroot pigweed plant response rating: 7
[8]; [12]
  Plant response rating, Barley (winter): 10
[8]; [13]
  Plant response rating, Barley (winter): 10
[8]; Rate 250 g/ha, 0 to 100 scale
  Plant response rating, Barley (winter): 85
[9]; [12]
  Plant response rating, Wheat (winter): 40
[9]; [13]
  Plant response rating, Wheat (winter): 50
[9]; Rate 250 g/ha, 0 to 100 scale
  Plant response rating, Wheat (winter): 60
[10]; [14]
  Cocklebur plant response rating: 1
[10]; [22]
  Cocklebur plant response rating: 1
[10]; [15]
  Cocklebur plant response rating: 0
[10]; [16]
  Plant response rating, Cocklebur: 1
[10]; [17]
  Plant response rating, Cocklebur: 3
[10]; [18]
  Cocklebur plant response rating: 3
[10]; [19]
  Cocklebur plant response rating: 1
[10]; [21]
  Cocklebur plant response rating: 4
[11]; Rate 62 g/ha, 0 to 100 scale
  Plant response rating, Wheat (winter): 15
[11]; Rate 125 g/ha, 0 to 100 scale
  Plant response rating, Wheat (winter): 30
[11]; Rate 250 g/ha, 0 to 100 scale (0 no effect, 100 complete control)
  Plant response rating, Wheat (winter): 70
